Source: US4632925A, “N-substituted diphenylpiperidines and antiobesity use thereof” (Hoffmann-La Roche Inc., priority 1985, dated 1986)
Structures can show the parent of a compound that is named as a salt.

How the values were obtained:
[1] = test system: isolated perfused rat pancreas (insulin secretion); assay: Insulin-secretory activity in the isolated perfused rat pancreas; parameters: species or system rat (female Charles River); settings: 16.7 mM glucose, index > 1 indicates suppression of insulin secretion
Method: DETERMINATION OF INSULIN-SECRETORY ACTIVITY IN THE ISOLATED PERFUSED RAT PANCREAS
Pancreases were obtained from young adult female Charles River rats weighing from 200-300 g. The animals were anesthesized with sodium pentobarbitol (45 mg/kg), injected intraperitoneally, and the pancreas with its intact vasculature was removed and connected to an extracorporeal perfusion apparatus.
The basic perfusion solution contained: 133 mM NaCl, 4.4 mM KCl, 2.5 mM MgSO4, 2.4 mM Ca gluconate, 1.5 mM KH2 PO4, 29.4 mM HaHCO3, 4% dextran and 0.2% bovine serum albumin and glucose as discussed below. The perfusion flow rate was kept constant at 4 ml/min. After a 15-20 minute equilibration period, the experimental protocol was begun. The pancreatic effluent was collected in either one or four-minute fractions.
The perfusion was run in the following sequence for each test compounds:
30 min 16.7 mM glucose--internal control
30 min 16.7 mM glucose and test compound
10 min 16.7 mM glucose--to check pancreas viability
The perfusion for the nontreated pancreas preparation was run as above, except that the test compound was omitted and replaced with perfusion solution.
Test compounds were dissolved in 90% ethanol or dimethylsulfoxide to a concentration of 25 mM and then diluted in the perfusion buffer to the desired concentration. The perfusion effluent was collected in one or four minute fractions--the samples were checked immediately, aliquoted for submission to radioimmunoassay and stored at -20° C. until the time of assay. The radioimmunoassay of insulin was carried out by a back-titration method using a pure rat insulin standard.
To assess the inhibitory activity of the test compounds, an inhibition index was calculated. The inhibition index is derived by comparing the insulin secretion response from treated versus nontreated pancreas preparations. For each preparation, a ratio of insulin secretion was calculated from the area under the insulin secretion curve of the first pulse of 16.7 mM glucose divided by the area under the curve of the second pulse of 16.7 mM glucose containing compound.

[2] = Glucose clearance: acute in vivo model; parameters: species or system Sprague-Dawley rats; settings: Rattus norvegicus, po, 0.5 h; 100 mg/kg intragastric, 30 min before i.p. glucose 1 g/kg; circulating glucose at 30 min; >100% indicates activity
Method: GLUCOSE CLEARANCE: ACUTE IN VIVO MODEL
The rationale for this test is that compounds which suppress insulin secretion should increase circulating glucose levels above those observed in controls following the administration of a high glucose load. Sprague-Dawley rats which range in weight from 150 to 180 grams after an overnight fast of 16 or 18 hours are given the test compound (100 mg/kg body weight) by intragastric administration 30 minutes before the intraperitoneal administration of glucose (1 g/kg body weight). Circulating glucose levels are determined immediately before glucose administration and 30, 60 and 90 minutes after glucose administration. Active compounds increase circulating glucose levels compared to controls. Since glucose levels peak at 30 minutes following glucose administration, the difference in circulating glucose levels between controls and treated rats at 30 minutes is used as an index of activity. The data are expressed as percent of control.

[3] = Antiobesity effects in obese Zucker rats; format: in vivo, genetically obese male Zucker rats; settings: 14 days; for Relative Body Weight Gain Index: gain / days / dose (g/kg)
Method: ANTIOBESITY EFFECTS IN OBESE ZUCKER RATS
Genetically Obese Male Zucker rats were kept in temperature (22° C.) and light (12 hours light-dark cycle) regulated rooms. One week prior to the start of the experiment, the rats were transferred to individual wirebottomed cages and trained to eat a powdered chow diet (Ralston Purina Co., St. Louis, Mo.) ad libitum.
At the beginning of the experiment, the control group contributed to eat the chow diet and the experimental animals were given a chow diet containing drug. The amount of drug administered was calculated from the food intake per kg body weight for each experimental group. The age of the rats at the start of the drug treatment was two to three months. The period of treatment was 28 to 64 days. Food intake and body weights were recorded periodically (once each day to twice a week) throughout the duration of the study. Plasma samples for insulin and glucose determinations were taken from clipped tails. Carcass composition was determined at the end of the treatment period and, or comparative purposes, prior to the start of treatment.

[4] = Antiobesity effects in obese Zucker rats; format: in vivo, genetically obese male Zucker rats; settings: 46 mg/kg, 14 days; gain / days / dose (g/kg)

Compound	Perfused Pancreas Inhibition Index ([1]; 100 μM)	response vs control in vivo at 100 mg/kg [2] [%]	Perfused Pancreas Inhibition Index ([1]; 50 μM)	further results
O=C(CCCc1cccnc1)N1CCC(C(c2ccccc2)c2ccccc2)CC1 [Example 10, 4-diphenylmethyl-1-[1-oxo-4-(3-pyridinyl)butyl]piperidine, 0.1 molar ethylacetate solvate]	6.0	105		
O=C(CCCc1cccnc1)N1CCC(C=C(c2ccccc2)c2ccccc2)CC1 [Example 11, 4-(2,2-diphenylethenyl)-1-[1-oxo-4-(3-pyridinyl)butyl]piperidine]		99	7.6	
O=C(CCCc1cccnc1)N1CCC(CC(c2ccccc2)c2ccccc2)CC1 [Example 14, 4-(2,2-diphenylethyl)-1-[1-oxo-4-(3-pyridinyl)butyl]piperidine]	14.1	109		
c1ccc(C(c2ccccc2)C2CCN(CCCCc3cccnc3)CC2)cc1 [Example 16, 3-[4-[4-(Diphenylmethyl)-1-piperidinyl]butyl]pyridine (1:1)-(Z)-2-butenedioate salt]	5.3	120		
C(=C(c1ccccc1)c1ccccc1)C1CCN(CCCCc2cccnc2)CC1 [Example 17, 3-[4-[4-(2,2-Diphenylethenyl)-1-piperidinyl]butyl]pyridine]	1.7	101		
Fc1ccc(C(=CC2CCN(CCCCc3cccnc3)CC2)c2ccc(F)cc2)cc1 [Example 18, 3-[4-[4-[2,2-bis(4-fluorophenyl)ethenyl]-1-piperidinyl]butyl]pyridine (1:1)-(E)-2-butenedioate salt]	0.6	113		
C(=C(c1ccccc1)c1ccccc1)C1CCN(CCCCCc2cccnc2)CC1 [Example 19, 3-[5-[4-(2,2-Diphenylethenyl)-1-piperidinyl]pentyl]pyridine (1:1)-(E)-2-butenedioate salt]	24.1	97		
c1ccc(C(CC2CCN(CCCCc3cccnc3)CC2)c2ccccc2)cc1 [Example 20, 3-[4-[4-(2,2-Diphenylethyl)-1-piperidinyl]butyl]pyridine]	19.1	106		
Fc1ccc(C(CC2CCN(CCCCc3cccnc3)CC2)c2ccc(F)cc2)cc1 [Example 21, 3-[4-[4-[2,2-Bis(4-fluorophenyl)ethyl]-1-piperidinyl]butyl]pyridine (1:1)-(E)-2-butenedioate salt]	16.3	136		
C(=C(c1ccccc1)c1ccccc1)C1CCN(CCCc2cccnc2)CC1 [Example 22, 3-[3-[4-(2,2-Diphenylethenyl)-1-piperidinyl]propyl]pyridine (1:1)-(E)-2-butenedioate salt]	10.1	101		
C(=C(c1ccccc1)c1ccccc1)C1CCN(CCCCCCc2cccnc2)CC1 [Example 23, 3-[6-[4-(2,2-diphenylethenyl)-1-piperidinyl]hexyl]pyridine (1:1)-(E)-2-butenedioate salt]	2.6	144		
C(=C(c1ccccc1)c1ccccc1)C1CCN(CCCCCCCc2cccnc2)CC1 [Example 24, 3-[7-[4-(2,2-Diphenylethenyl)-1-piperidinyl]heptyl]pyridine (1:1)-(E)-2-butenedioate salt hemihydrate]		118	35	
Fc1ccc(C(CC2CCN(CCCCCCc3cccnc3)CC2)c2ccc(F)cc2)cc1 [Example 26, 3-[6-[4-[2,2-Bis(4-fluorophenyl)ethyl]-1-piperidinyl]hexyl]pyridine (1:1)-(E)-2-butenedioate salt]		125	2.0	
c1ccc(C(CC2CCN(CCCCCCCCc3cccnc3)CC2)c2ccccc2)cc1 [Example 27, 3-[8-[4-(2,2-Diphenylethyl)-1-piperidinyl]octyl]pyridine]				Relative Body Weight Gain Index ([3]; 58 mg/kg): 94; Body Weight Gain (treated minus control) ([3]; 58 mg/kg, marked *): -76 g; Food Intake ([3]; 58 mg/kg, marked *): 70 % of control
C(=C(c1ccccc1)c1ccccc1)C1CCN(CCCCc2cncnc2)CC1 [Example 28, 5-[4-[4-(2,2-diphenylethenyl)-1-piperidinyl]butyl]pyrimidine (1:1)-(E)-2-butenedioate salt]	3.0	147		
C(=C(c1ccccc1)c1ccccc1)C1CCN(CCCCCCc2cncnc2)CC1 [Example 29, 5-[6-[4-(2,2-Diphenylethenyl)-1-piperidinyl]hexyl]pyrimidine]	10.4	104		
C(=C(c1ccccc1)c1ccccc1)C1CCN(CCCCCCCCCc2cccnc2)CC1 [Example 31, 3-[9-[4-(2,2-Diphenylethenyl)-1-piperidinyl]nonyl]pyridine]		107	2.7	Relative Body Weight Gain Index ([3]; 41 mg/kg): 61; Body Weight Gain (treated minus control) ([3]; 41 mg/kg, marked *): -35 g; Food Intake ([3]; 41 mg/kg, marked *): 82 % of control
C(=C(c1ccccc1)c1ccccc1)C1CCN(CCCCCCCCCCc2cccnc2)CC1 [Example 32, 3-[10-[4-(2,2-Diphenylethenyl)-1-piperidinyl]decyl]pyridine]		100		Food Intake ([3]; 46 mg/kg): 91 % of control; Body Weight Gain (treated minus control) ([3]; 46 mg/kg, marked *): -46 g; Relative Body Weight Gain Index [4]: 71
O=C(CCCCCn1ccnc1)N1CCC(C=C(c2ccccc2)c2ccccc2)CC1 [Example 33, 4-(2,2-Diphenylethenyl)-1-[1-oxo-6-(1H-imidazo-1-yl)hexyl]piperidine]		120	2.5	
C(=C(c1ccccc1)c1ccccc1)C1CCN(CCCCCCn2ccnc2)CC1 [Example 34, 1-[6-[4-(2,2-Diphenylethenyl)-1-piperidinyl]hexyl]-1H-imidazole]		101	1.1	
